Reference: patent US9555057B2, “Compositions and methods for reducing cutaneous microbiome malodor” (The Research Foundation for The State University of New York, priority 2014, dated 2017)

Key:
[1] = pH and solubility of solutions, suspensions and formulae; format: physicochemical; settings: 36 mM (zinc acetate and zinc carbonate also 72 mM)
[2] = tested on: C. striatum, Staph. epidermidis or a 1:1 mixture thereof; settings: zinc acetate, CIL and either arginine or arginine bicarbonate, pH 4.0 to 8.0, 4 hours, no phenylalanine
From the text: The pH of the medium with each of the different zinc salts needed some adjustment, which was done with 1 M HCl or 1 M NaOH depending upon the pH of the stock solutions of each zinc salt employed.

Staph. haemolyticus = assay: Arginolysis: pH during incubation with arginine; format: cell-based, Staphylococcus haemolyticus; settings: 6.0 mM arginine, 4 hours
Protocol: (§1) Each microorganism was recovered from its frozen state at −70° C. and grown at 37° C. in 10 ml of appropriate and respective culture media for a period between 24 and 48 hours (see Table 1). Incubations were carried out to middle and late exponential stages of bacterial growth under the incubation conditions indicated in Table 1. A 1.5 ml inoculum was transferred therefrom to polypropylene bottles containing 150 ml of the initial growth medium. This was then incubated at 37° C. for 24 to 48 hours. Bacteria were harvested by centrifugation (DuPone, Sorvall, Newtown, Conn.) at 10,000 g and 4° C. for 20 min. The volume of bacterial pellet obtained was between about 2.5 and 3.5 ml. The sediment was then washed with sterile distilled water to remove residual growth medium. This was done by centrifuging the bacterial sediment three times at 1,740 g for 15 min at 4° C. […]

[3] = tested on: pure cultures of microorganisms resident on human axillary skin; settings: 6.0 mM arginine; Staph. epidermidis, Staph. haemolyticus and P. avidum
Protocol: Pure cultures of the numerically most prominent microorganisms normally resident on human axillary skin (see Table 1) were surveyed for their effects on (i) pH, (ii) Eh, (iii) ability to generate malodor and (iv) ability to generate hydrogen peroxide. Four hour incubation experiments were conducted, in which each of a wide range of carbohydrate and amino acid substrates (see Table 1) were surveyed for malodor production and related changes in pH and Eh thereto.
Each microorganism was recovered from its frozen state at −70° C. and grown at 37° C. in 10 ml of appropriate and respective culture media for a period between 24 and 48 hours (see Table 1). Incubations were carried out to middle and late exponential stages of bacterial growth under the incubation conditions indicated in Table 1. A 1.5 ml inoculum was transferred therefrom to polypropylene bottles containing 150 ml of the initial growth medium. This was then incubated at 37° C. for 24 to 48 hours. Bacteria were harvested by centrifugation (DuPone, Sorvall, Newtown, Conn.) at 10,000 g and 4° C. for 20 min. […] The sediment was then washed with sterile distilled water to remove residual growth medium. This was done by centrifuging the bacterial sediment three times at 1,740 g for 15 min at 4° C.
Each pure culture was pre-incubated at 37° C. at pH 7.0 to exhaust or reduce any stored carbohydrate and other carbon/energy sources acquired during growth in culture.
Both of these electrodes were connected to a second pH meter (pH M26 Radiometer Copenhagen NV, Denmark) and used here as a millivoltmeter. For the Eh measurements, when the Eh electrode was immersed in an incubation mixture, each Eh reading was recorded after allowing several seconds for each reading to stabilize. The Eh value was related to that of the hydrogen electrode by adding to each reading the difference between the E0 value for the Red Rod reference element-mercury and hydrogen electrodes—i.e. 270 my at 25° C.
At each time point, the odor was determined organoleptically by immersing a solid glass rod into each incubation mixture, stirring gently 3 times and then removing and carefully smelling the rod after 5 seconds. The intensity of the odor was assessed on a 0 to 4 numerical scale (0—no odor, 1—mild odor, 2—moderate odor, 3—strong odor, and 4—very strong odor).

P. avidum = assay: Arginolysis: pH during incubation with arginine; format: cell-based, Propionibacterium avidum; settings: 6.0 mM arginine
Protocol: as §1

Staph. epidermidis = assay: Arginolysis: pH during incubation with arginine; format: cell-based, Staphylococcus epidermidis; settings: 6.0 mM arginine
Protocol: as §1

## [Cl-].[Cl-].[Zn+2] [Zinc chloride]
[1]
  pH of stock solution in de-ionized water: 6.7

## N=C(N)NCCC[C@H](N)C(=O)O [arginine]
[2]
  Sulfurous odor and Eh: No sulfurous odor nor corresponding decrease in the Eh
Staph. haemolyticus
  pH reached during arginolysis: 8.2
[3]
  Odor during arginolysis: No odor of significance
P. avidum
  pH rise above the level with Staph. epidermidis: about 0.3 pH units
Staph. epidermidis; end of the 4 hours of incubation
  pH of the incubation mixture: 7.7
Staph. epidermidis; start pH 7.0, within the first 15 min
  pH of the incubation mixture: 7.4
